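Growth conditions: 96-well plates. Treatment: test compound, 48 hours, 5 concentrations. Analysis: linear interpolation between bracketing concentrations; unreached endpoints set to highest concentration. Abbreviation: GI50, concentration required for 50% inhibition of growth. At the TGI there is no net growth.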
How the values were obtained:
Experiment in all cases: NCI-60 cell line screen, 48 h
786-0 renal = tested on: 786-0 renal
SK-MEL-5 melanoma = tested on: SK-MEL-5 melanoma
HCT-15 colon = tested on: HCT-15 colon
COLO 205 colon = tested on: COLO 205 colon
NCI-H460 lung = tested on: NCI-H460 lung
SK-MEL-2 melanoma = tested on: SK-MEL-2 melanoma
HT29 colon = tested on: HT29 colon
U251 CNS = tested on: U251 CNS
HL-60(TB) leukemia = tested on: HL-60(TB) leukemia
MDA-MB-231 breast = tested on: MDA-MB-231 breast
HOP-92 NSCLC = tested on: HOP-92 NSCLC
OVCAR-4 ovarian = tested on: OVCAR-4 ovarian
BT-549 breast = tested on: BT-549 breast
OVCAR-3 ovarian = tested on: OVCAR-3 ovarian
K-562 leukemia = tested on: K-562 leukemia
SK-MEL-28 melanoma = tested on: SK-MEL-28 melanoma
LOX IMVI melanoma = tested on: LOX IMVI melanoma
MALME-3M melanoma = tested on: MALME-3M melanoma
SR leukemia = tested on: SR leukemia
A498 renal = tested on: A498 renal
IGROV1 ovarian = tested on: IGROV1 ovarian
SF-539 CNS = tested on: SF-539 CNS
M14 melanoma = tested on: M14 melanoma
SF-295 CNS = tested on: SF-295 CNS
NCI-H226 lung = tested on: NCI-H226 lung
NCI/ADR-RES ovarian = tested on: NCI/ADR-RES ovarian
HS 578T breast = tested on: HS 578T breast
PC-3 prostate = tested on: PC-3 prostate
NCI-H23 lung = tested on: NCI-H23 lung

`CCc1c(C)nc2sc3c(N)ncnc3c2c1C` was tested, and the GI50 (786-0 renal) was greater than 25 µM, the TGI (786-0 renal) was greater than 25 µM and the GI50 (SK-MEL-5 melanoma) was greater than 25 µM. It also gave a TGI (SK-MEL-5 melanoma) greater than 25 µM, a GI50 (HCT-15 colon) greater than 25 µM and a TGI (HCT-15 colon) greater than 25 µM. For the same molecule, the GI50 (COLO 205 colon) was greater than 25 µM, the TGI (COLO 205 colon) was greater than 25 µM and the GI50 (NCI-H460 lung) was greater than 25 µM. It also gave a TGI (NCI-H460 lung) greater than 25 µM, a GI50 (SK-MEL-2 melanoma) greater than 25 µM and a TGI (SK-MEL-2 melanoma) greater than 25 µM. For the same molecule, the GI50 (HT29 colon) was greater than 25 µM, the TGI (HT29 colon) was greater than 25 µM and the GI50 (U251 CNS) was greater than 25 µM. For the same molecule, the TGI (U251 CNS) was greater than 25 µM, the GI50 (HL-60(TB) leukemia) was greater than 25 µM and the TGI (HL-60(TB) leukemia) was greater than 25 µM. For the same molecule, the GI50 (MDA-MB-231 breast) was greater than 25 µM, the TGI (MDA-MB-231 breast) was greater than 25 µM and the GI50 (HOP-92 NSCLC) was greater than 25 µM. For the same molecule, the TGI (HOP-92 NSCLC) was greater than 25 µM, the GI50 (OVCAR-4 ovarian) was greater than 25 µM and the TGI (OVCAR-4 ovarian) was greater than 25 µM. It also gave a GI50 (BT-549 breast) greater than 25 µM, a TGI (BT-549 breast) greater than 25 µM and a GI50 (OVCAR-3 ovarian) greater than 25 µM. It also gave a TGI (OVCAR-3 ovarian) greater than 25 µM, a GI50 (K-562 leukemia) greater than 25 µM and a TGI (K-562 leukemia) greater than 25 µM. It also gave a GI50 (SK-MEL-28 melanoma) greater than 25 µM, a TGI (SK-MEL-28 melanoma) greater than 25 µM and a GI50 (LOX IMVI melanoma) greater than 25 µM. The TGI (LOX IMVI melanoma) was greater than 25 µM, the GI50 (MALME-3M melanoma) was greater than 25 µM and the TGI (MALME-3M melanoma) was greater than 25 µM. It also gave a GI50 (SR leukemia) greater than 25 µM, a TGI (SR leukemia) greater than 25 µM and a GI50 (A498 renal) greater than 25 µM. For the same molecule, the TGI (A498 renal) was greater than 25 µM, the GI50 (IGROV1 ovarian) was greater than 25 µM and the TGI (IGROV1 ovarian) was greater than 25 µM. It also gave a GI50 (SF-539 CNS) greater than 25 µM, a TGI (SF-539 CNS) greater than 25 µM and a GI50 (M14 melanoma) greater than 25 µM. For the same molecule, the TGI (M14 melanoma) was greater than 25 µM, the GI50 (SF-295 CNS) was greater than 25 µM and the TGI (SF-295 CNS) was greater than 25 µM. The GI50 (NCI-H226 lung) was greater than 25 µM, the TGI (NCI-H226 lung) was greater than 25 µM and the GI50 (NCI/ADR-RES ovarian) was greater than 25 µM. The TGI (NCI/ADR-RES ovarian) was greater than 25 µM, the GI50 (HS 578T breast) was greater than 25 µM and the TGI (HS 578T breast) was greater than 25 µM. For the same molecule, the GI50 (PC-3 prostate) was greater than 25 µM, the TGI (PC-3 prostate) was greater than 25 µM and the GI50 (NCI-H23 lung) was greater than 25 µM.
